In ChEMBL document CHEMBL1201862, “PubChem BioAssay data set” (2004):
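In this assay, cells in 96-well plates receive the compound at five concentrations for 48 hours. Endpoints are linearly interpolated between the surrounding concentrations. GI50 = concentration required for 50% inhibition of growth.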 Calls of active or inactive are those of the source. No stated cut-off is given here; in the data, active = GI50 up to about 1.1 µM and inactive = higher.

How the values were obtained:
Assay in all cases: inhibition of tumour cell growth, NCI panel, 48 h
[1] = tested on: OVCAR-8
[2] = tested on: HCC 2998
[3] = tested on: NCI-H23
[4] = tested on: SK-MEL-2
[5] = tested on: Malme-3M
[6] = tested on: OVCAR-4
[7] = tested on: SK-OV-3
[8] = tested on: SNB-75
[9] = tested on: SF-539
[10] = tested on: SK-MEL-5
[11] = tested on: OVCAR-3
[12] = tested on: ACHN
[13] = tested on: HOP-62
[14] = tested on: NCI-H522
[15] = tested on: NCI/ADR-RES
[16] = tested on: CAKI-1
[17] = tested on: HCT-116
[18] = tested on: BT-549
[19] = tested on: A549
[20] = tested on: U-251

Compound	GI50 [1]	GI50 [2]	GI50 [3]	GI50 [4]	GI50 [5]	GI50 [6]	GI50 [7]	GI50 [8]	GI50 [9]	GI50 [10]	GI50 [11]	GI50 [12]	GI50 [13]	GI50 [14]	GI50 [15]	GI50 [16]	GI50 [17]	GI50 [18]	GI50 [19]	GI50 [20]
O=C1C2CCCCC2C(=O)N1n1c(Cc2ccccc2)n[nH]c1=O (stereo not given)	> 100 µM (inactive)	> 100 µM (inactive)	> 100 µM (inactive)	> 100 µM (inactive)	> 100 µM (inactive)	> 100 µM (inactive)	> 100 µM (inactive)	> 100 µM (inactive)	> 100 µM (inactive)	> 100 µM (inactive)	> 100 µM (inactive)	> 100 µM (inactive)	> 100 µM (inactive)	> 100 µM (inactive)	> 100 µM (inactive)	> 100 µM (inactive)	> 100 µM (inactive)	> 100 µM (inactive)	> 100 µM (inactive)	> 100 µM (inactive)
CN(CCCN1CCCC1)CCCN(C)C(=O)Cc1ccc(Cl)c(Cl)c1	30 µM (inactive)	5.68 µM (inactive)	21.2 µM (inactive)	13.5 µM (inactive)	18.3 µM (inactive)	29.6 µM (inactive)	27.7 µM (inactive)	18.5 µM (inactive)	16.7 µM (inactive)	15.3 µM (inactive)	27 µM (inactive)	27.6 µM (inactive)	19.2 µM (inactive)	15.7 µM (inactive)	> 73.3 µM (inactive)	20.6 µM (inactive)	13.6 µM (inactive)	18.6 µM (inactive)	18.6 µM (inactive)	14.9 µM (inactive)
CC(Cc1ccc(O)cn1)(NC(=O)c1ccccc1)C(=O)O (stereo not given)	> 100 µM (inactive)	> 100 µM (inactive)	> 100 µM (inactive)	> 100 µM (inactive)	> 100 µM (inactive)	> 100 µM (inactive)	> 100 µM (inactive)	40.4 µM (inactive)	> 100 µM (inactive)	> 100 µM (inactive)	> 100 µM (inactive)	> 100 µM (inactive)	> 100 µM (inactive)	> 100 µM (inactive)	> 100 µM (inactive)	> 100 µM (inactive)	> 100 µM (inactive)	> 100 µM (inactive)	> 100 µM (inactive)	> 100 µM (inactive)
Cc1cc2c(cc1C)[n+]([O-])c(C(=O)/C=C/c1ccccc1[N+](=O)[O-])c(C)[n+]2[O-]	61.5 µM (inactive)	71.6 µM (inactive)	48.5 µM (inactive)	41 µM (inactive)	57 µM (inactive)	> 100 µM (inactive)	> 46.7 µM (inactive)	11.1 µM (inactive)	31.2 µM (inactive)	> 100 µM (inactive)	50.7 µM (inactive)	46.3 µM (inactive)	34 µM (inactive)	28.6 µM (inactive)	> 100 µM (inactive)	47.2 µM (inactive)	70.8 µM (inactive)	> 81.8 µM (inactive)	> 80.9 µM (inactive)	32.1 µM (inactive)
COc1cccc2c1C(=O)c1c(O)c3c(c(O)c1C2=O)C[C@@](O)(C(=O)CO)C[C@@H]3OC1CC2C(OCN3CN2COC2C(C)OC(O[C@H]4C[C@](O)(C(=O)CO)Cc5c(O)c6c(c(O)c54)C(=O)c4c(OC)cccc4C6=O)CC23)C(C)O1 (stereo not given in full)	0.0376 µM (active)	0.0274 µM (active)	0.027 µM (active)	0.0362 µM (active)	0.0444 µM (active)	0.237 µM (active)	0.0681 µM (active)	0.0151 µM (active)	0.0377 µM (active)	0.0614 µM (active)	0.112 µM (active)	0.0634 µM (active)	0.04 µM (active)	0.0218 µM (active)	0.251 µM (active)	0.0927 µM (active)	0.0289 µM (active)	0.157 µM (active)	0.0269 µM (active)	0.0186 µM (active)
CCc1[nH]nc(C(N)=O)c1/N=N/N(C)C	73.1 µM (inactive)	> 100 µM (inactive)	54.1 µM (inactive)	> 100 µM (inactive)	78.3 µM (inactive)	> 100 µM (inactive)	91.6 µM (inactive)	65.9 µM (inactive)	78.7 µM (inactive)	70 µM (inactive)	> 100 µM (inactive)	36.5 µM (inactive)	82.6 µM (inactive)	37.3 µM (inactive)	94.8 µM (inactive)	24.8 µM (inactive)	72.1 µM (inactive)	21.8 µM (inactive)	43.5 µM (inactive)	48.3 µM (inactive)
Cc1coc2c1C(=O)C(=O)c1c-2ccc2c1CCCC2(C)C [TANSHINONE IIA]	6.35 µM (inactive)	4.06 µM (inactive)	1.14 µM (inactive)	2.28 µM (inactive)	0.508 µM (active)	10.6 µM (inactive)	21.3 µM (inactive)	3.41 µM (inactive)	2.42 µM (inactive)	0.213 µM (active)	0.303 µM (active)	7.33 µM (inactive)	1.95 µM (inactive)	1.54 µM (inactive)	4.58 µM (inactive)	1.95 µM (inactive)	1.55 µM (inactive)	2.1 µM (inactive)	1.48 µM (inactive)	2.51 µM (inactive)
C[N+]1([O-])C2CCC1CC(OC(=O)C(CO)c1ccccc1)C2 (stereo not given)	> 100 µM (inactive)	> 100 µM (inactive)	> 33.8 µM (inactive)	> 100 µM (inactive)	> 100 µM (inactive)	> 100 µM (inactive)	> 100 µM (inactive)	> 100 µM (inactive)	> 100 µM (inactive)	> 100 µM (inactive)	> 100 µM (inactive)	> 100 µM (inactive)	> 100 µM (inactive)	> 100 µM (inactive)	> 33.4 µM (inactive)	> 100 µM (inactive)	> 100 µM (inactive)	> 66.5 µM (inactive)	> 100 µM (inactive)	> 100 µM (inactive)
CN(C)CC1CCC/C(=C\c2ccc(Cl)c(Cl)c2)C1=O (stereo not given)	3.18 µM (inactive)	10.7 µM (inactive)	8.45 µM (inactive)	6.52 µM (inactive)	4.42 µM (inactive)	3.05 µM (inactive)	6.78 µM (inactive)	7.41 µM (inactive)	5.2 µM (inactive)	9.82 µM (inactive)	4.31 µM (inactive)	4.18 µM (inactive)	9.04 µM (inactive)	2.13 µM (inactive)	3.05 µM (inactive)	2.59 µM (inactive)	1.97 µM (inactive)	2.33 µM (inactive)	15.1 µM (inactive)	2.65 µM (inactive)
C/C(=N\Nc1nc2ccccc2s1)c1ccncn1	0.286 µM (active)	4.88 µM (inactive)	0.56 µM (active)	8.09 µM (inactive)	0.705 µM (active)	2.52 µM (inactive)	1.74 µM (inactive)	4.1 µM (inactive)	1.39 µM (inactive)	0.621 µM (active)	0.366 µM (active)	0.0673 µM (active)	2.28 µM (inactive)	0.12 µM (active)	0.351 µM (active)	0.145 µM (active)	0.532 µM (active)	4.15 µM (inactive)	2.22 µM (inactive)	1.3 µM (inactive)
CC(NNC(=O)CC(=O)N(C(=O)c1ccccc1)c1ccc(Cl)cc1)c1cc2ccccc2oc1=O (stereo not given)	> 10 µM (inactive)	> 10 µM (inactive)	> 10 µM (inactive)	> 10 µM (inactive)	> 10 µM (inactive)	> 10 µM (inactive)	> 10 µM (inactive)	> 10 µM (inactive)	> 10 µM (inactive)	> 10 µM (inactive)	> 10 µM (inactive)	> 10 µM (inactive)	> 10 µM (inactive)	> 10 µM (inactive)	> 10 µM (inactive)	> 10 µM (inactive)	> 10 µM (inactive)	> 10 µM (inactive)	> 10 µM (inactive)	> 10 µM (inactive)
O=c1c2cccnc2[nH]c2ccc3scnc3c12	> 10 µM (inactive)	> 10 µM (inactive)	> 10 µM (inactive)	> 10 µM (inactive)	> 10 µM (inactive)	9.35 µM (inactive)	> 10 µM (inactive)	6.31 µM (inactive)	6.95 µM (inactive)	7.01 µM (inactive)	4.28 µM (inactive)	1.87 µM (inactive)	> 10 µM (inactive)	> 10 µM (inactive)	8.91 µM (inactive)	> 10 µM (inactive)	3.3 µM (inactive)	> 10 µM (inactive)	3.96 µM (inactive)	> 10 µM (inactive)
O=C1OCC(c2ccc(Cl)cc2)=C1Cl	25.5 µM (inactive)	29 µM (inactive)	19.1 µM (inactive)	22.9 µM (inactive)	15.6 µM (inactive)	44.8 µM (inactive)	> 100 µM (inactive)	> 100 µM (inactive)	38 µM (inactive)	17.1 µM (inactive)	20.7 µM (inactive)	42.1 µM (inactive)	22.9 µM (inactive)	18.5 µM (inactive)	26.9 µM (inactive)	30.5 µM (inactive)	13.9 µM (inactive)	29.2 µM (inactive)	35 µM (inactive)	35.8 µM (inactive)
CN(C)c1ccc(/C=C(\NC(=O)c2ccccc2)C(=O)Nc2cccc(C(=O)NCCCO)c2)cc1	> 100 µM (inactive)	> 100 µM (inactive)	> 100 µM (inactive)	> 100 µM (inactive)	> 100 µM (inactive)	> 100 µM (inactive)	> 100 µM (inactive)	> 100 µM (inactive)	> 100 µM (inactive)	> 100 µM (inactive)	> 100 µM (inactive)	> 100 µM (inactive)	> 100 µM (inactive)	> 100 µM (inactive)	> 100 µM (inactive)	> 100 µM (inactive)	> 100 µM (inactive)	> 100 µM (inactive)	> 100 µM (inactive)	> 100 µM (inactive)
